Experiments:
ALP activity in MC3T3-E1 = test: Measurement of ALP activity in MC3T3-E1; type: cell-based, mouse; conditions: 1 μM (positive control, printed in the 10 μM column), MC3T3-E1
Protocol: ALP activity was assessed using Quantichrom ALP Assay Kit (Bioassay Systems, Hayward, Calif., USA) according to manufacturer's instructions.
Briefly, 3×10^3 MC3T3-E1 cells were dispensed in a 96-well plate together with […] of complete α-MEM containing ascorbic acid (50 μg/mL) and 10 mM β-glycerophosphate per well. Here, osmundacetone (10 μM and 50 μM) was added or not added, and the medium was exchanged every 3-4 days.
On day 14 of the incubation, the colorimetric change due to ALP activity in the cell fraction was measured using a spectrophotometer plate reader (Molecular Devices, Sunnyvale, Calif., USA) at 405 nm (Kim et al., 2016). The % activation of ALP activity was shown by comparing ALP activity of cells treated with an experimental compound and ALP activity of the non-treated control cells.

[1] = test system: osteoclasts differentiated from mouse bone marrow cells; test: TRAP assay, osteoclast proliferation and differentiation inhibitory activity; type: cell-based
Protocol: Bone marrow cells were collected from the femur and shin bones of 5-8 week old male C57BL/6 mice. Muscles were removed from the bones, and stored in cold phosphate buffered saline (PBS; # CAP08-050, GenDEPOT, Katy, Tex., USA).
Both ends of each bone were cut, and the bone marrow was flushed with a flushing medium (serum-free α-MEM, 2 mM ethylenediaminetetraacetic acid) kept cool, using a 25 G needle.
Bone marrow cells were collected by centrifugation at 3,000 rpm for 3 min using Labogene 1248R (Labogene, Lynge, Denmark), and then resuspended in a wash medium. Thereafter, 8 mL of the collected bone marrow cells were overlaid on 6 mL of a lymphocyte isolation medium (LSM; #50494, MP Biomedicals, Santa Ana, Calif., USA), followed by centrifugation at 1,600 rpm for 20 minutes, thereby isolating mononuclear cells.
The mononuclear cell bands were collected from the media interface, and incubated using complete α-MEM (containing 10% fatal bovine serum (FBS; Capricorn Scientific, Ebsdorfergrund, Germany) and 1% (v/v) antibiotic (including 100 U/mL penicillin G and […] streptomycin)) in the conditions of 37° C. and 5% CO2 while the medium was exchanged every three days.
In order to promote the differentiation of osteoclasts, 1×10^5 cells were incubated in 0.5 mL of the medium per well in a 48-well plate, in the presence of osteoclast differentiation factors, M-CSF (60 ng/mL) and RANKL (150 ng/mL), purchased from PeproTec (Seoul, Korea). As known, macrophages/monocytes derived from one bone marrow differentiated into mature multinucleated osteoclasts after 6 days (Gurt et al., 2015).
The tibia and femur of 6-8 week old male C57BL/6 mice were aseptically resected, and bone marrow cells were aseptically collected using a syringe (21 G, Korea Green Cross). The bone marrow cells were floated in 500 μL of α-MEM medium (Gibco BRL Co.) containing sodium bicarbonate (2.0 g/L), streptomycin (100 mg/L), and penicillin ([…]), dispensed in a 48-well plate, and assayed in triplicate. Mononuclear cells as precursor cells of osteoclasts were treated with RANKL and M-CSF as differentiation promoting factors, and thus differentiated into osteoclasts within 5-7 days.
2-1) Sample preparation: The hot-water extract, EA extract, or fraction of Osmunda japonica were prepared by the same methods as in section 1 of <Example 1>. The EA-2 extract was dissolved in a minimum amount of DMSO, and then diluted with water to 70% of the original volume of the hot-water extract assuming that the yield of EA-2 extraction was approximately 70%. 2-2) Sample administration: The sample was continuously administered to a medium at 1:20 (v/v; 25 μL of the sample per 500 μL of the medium) from day 1 of incubation of bone marrow cells, while the medium was exchanged every 2-3 days. 2-3) Measurement of osteoclast differentiation Osteoclasts were defined by TRAP-positive multinucleated cells stained with TRAP. As for TRAP stain solution, 5 mg of naphthol AS-MS phosphate (Sigma N-4875) as a base and 25 mg of Fast Red Violet LB salt as a color developing reagent were dissolved in about 0.5 mL of N,N-dimethylformamide, and then mixed with 0.1N NaHCO3 buffer solution (50 mL) containing 50 mM tartaric acid. The reaction reagent was stored in a refrigerator before use.
After bone marrow cells were incubated in a medium containing differentiation promoting factors for 7 days, the medium was removed, and the cells were washed with PBS, and then immobilized with PBS containing 10% formalin for 2-5 minutes. Thereafter, the cells were immobilized with a 1:1 mixture solution of ethanol and acetone, followed by drying. The immobilized cells were treated with the TRAP stain solution for 15 minutes, and washed with PBS, and then the degree of cell staining was observed by a microscope.
In the microscope field of view, cells having two or more nuclei in the TRAP-positive cells were determined to be osteoclasts, and the number of cells was measured. […]

Compound | % Activation of ALP activity (ALP activity in MC3T3-E1) [%] | formation of giant osteoclasts, number compared with the positive control group ([1]; 1 μM) | IC50 ([1]; Mus musculus, Osteoclast, tested at 1, 4, 7 and 10 μM, TRAP-positive multinucleated cells) [µM]
Parathyroid hormone-related peptide [reference compound] | 138 ± 19 |  | 
NCCCC(O)(P(=O)(O)O)P(=O)(O)O [Fosamax, alendronate, reference compound] |  | smaller compared with the positive control group | ≤ 4

— patent US20200129450A1, “COMPOSITION COMPRISING OSMUNDACETONE OR PHARMACEUTICALLY ACCEPTABLE SALT THEREOF FOR PREVENTING OR TREATING BONE DISEASE” (KORPHARM CO., LTD., priority 2016, published 2020)
